# Reference: patent US20260130933A1, “PHARMACEUTICAL COMPOSITION FOR PREVENTION OR TREATMENT OF NEPHROPATHY AND/OR DIABETES MELLITUS, COMPRISING ENAVOGLIFLOZIN” (DAEWOONG PHARMACEUTICAL CO., LTD., priority 2022, published 2026)
# Experiment: Example 3: phase 3 trial, enavogliflozin 0.3 mg vs dapagliflozin 10 mg once a day for 24 weeks added to metformin and gemigliptin in patients with type 2 diabetes (same endpoints, rescue drug)
# Format: in vivo, human
# Conditions: week 6
# Method: 1) when Metformin (≥1,000 mg/Day) was Administered at a Constant Dose for at Least 8 Weeks Prior to Pre-Visit (Pre-Screening) • Metformin (≥1,000 mg/day) and gemigliptin (50 mg/day) were co-administered during the 8-week stabilization period. […] 4) when Metformin (≥1,000 mg/Day) and Gemigliptin (50 mg/Day) were Co-Administered at Constant Doses for at Least 8 Weeks Prior to Pre-Visit (Prescreening) • Without a separate stabilization period, Pre-visit (pre-screening) was Visit 1 (screening).
# Subjects who met the inclusion/exclusion criteria continued to receive metformin and gemigliptin while receiving a placebo of the clinical trial drug in a single-blind (subject-blinded) state for a 2-week run-in period.
# Here, the randomized subjects were stratified according to the administration therapy (co-administration with two or less agents (one or two agents) or three or more agents) of a conventional hypoglycemic agent (before washout of another hypoglycemic agent) within 24 weeks prior to obtaining written informed consent and by an HbA1c value (<8% or ≥8%) at Visit 1 (screening) measured in the central laboratory.
# The randomized subjects were administered two tablets of the clinical trial drug corresponding to each administration group once a day, and then visited the institution at weeks 6, 12, 18, and 24 during the 24-week administration period to conduct efficacy and safety assessments. In addition, during the clinical trial period, they were instructed to exercise regularly and control their diet without changing their daily life patterns.
# • 1) Change in HbA1c at week 24 after administration of clinical trial drug compared to Visit 2 (randomization)
# • 1) Change in HbA1c at each time point of weeks 6, 12, and 18 after administration of clinical trial drug compared to Visit 2 (randomization) • 2) Change in FPG at each time point of weeks 6, 12, 18, and 24 after administration of clinical trial drug compared to Visit 2 (randomization) • 3) Proportion of subjects achieving HbA1c<7% at each time point of weeks 6, 12, 18, and 24 after administration of clinical trial drug • 4) Proportion of subjects achieving HbA1c<6.5% at each time point of weeks 6, 12, 18, and 24 after administration of clinical trial drug • 5) Proportion of subjects achieving therapeutic response (HbA1c change (HbA1c at Visit 2—HbA1c at each evaluation time point)>0.5% or HbA1c<7% at each evaluation time point compared to Visit 2 (randomization)) at each time point of weeks 6, 12, 18, and 24 after administration of clinical trial drug • 6) Proportion of subjects achieving therapeutic response (HbA1c change (HbA1c at Visit 2—HbA1c at each evaluation time point)>0.7% or HbA1c<7% at each evaluation time point compared to Visit 2 (randomization)) at each time point of weeks 6, 12, 18, and 24 after administration of clinical trial drug • 7) Proportion of subjects achieving therapeutic response (HbA1c change (HbA1c at Visit 2—HbA1c at each evaluation time point)>1% or HbA1c<7% at each evaluation time point compared to Visit 2 (randomization)) at each time point of weeks 6, 12, 18, and 24 after administration of clinical trial drug
# [1] = modified per-protocol set 2, enavogliflozin 0.3 mg, dapagliflozin 10 mg
# [2] = per-protocol set, enavogliflozin 0.3 mg vs dapagliflozin 10 mg
# [3] = per-protocol set, enavogliflozin 0.3 mg, dapagliflozin 10 mg
structure (smiles),measurement,setting,value
"OC[C@H]1O[C@@H](c2cc(Cc3ccc(C4CC4)cc3)c(Cl)c3c2CCO3)[C@H](O)[C@@H](O)[C@@H]1O [Enavogliflozin, (2S,3R,4R,5S,6R)-2-(7-chloro-6 (4-cyclopropylbenzyl)-2,3-dihydrobenzofuran-4-yl)-6-(hydroxymethyl)tetrahydro-2H-pyran-3,4,5-triol]","Change from baseline in diastolic blood pressure, ANCOVA LS mean",modified per-protocol set 2,−2.04 mmHg
same,"Change from baseline in diastolic blood pressure, LS mean difference (enavogliflozin − dapagliflozin)",modified per-protocol set 2,−0.16 mmHg
same,"Change from baseline in diastolic blood pressure, Mean",modified per-protocol set 2,−2.76 mmHg
same,"Change from baseline in diastolic blood pressure, Median",modified per-protocol set 2,−3.00 mmHg
same,"Diastolic blood pressure, Mean",modified per-protocol set 2,73.72 mmHg
same,"Diastolic blood pressure, Median",modified per-protocol set 2,74.00 mmHg
same,"Change from baseline in systolic blood pressure, ANCOVA LS mean difference","modified per-protocol set 2, enavogliflozin 0.3 mg vs dapagliflozin 10 mg",0.73 mmHg
same,"Change from baseline in systolic blood pressure, ANCOVA LS mean",[1],−2.76 mmHg
same,"Change from baseline in systolic blood pressure, Mean",[1],−3.67 mmHg
same,"Change from baseline in systolic blood pressure, Median",[1],−3.00 mmHg
same,"Systolic blood pressure, Mean",[1],124.04 mmHg
same,"Systolic blood pressure, Median",[1],123.00 mmHg
same,"Adiponectin, Mean",per-protocol set,6.20 µg/mL
same,"Adiponectin, Median",per-protocol set,5.40 µg/mL
same,"Change from baseline in HOMA-IR, ANCOVA LS mean",per-protocol set,−0.94
same,"Change from baseline in HOMA-IR, LS mean difference (enavogliflozin − dapagliflozin)",per-protocol set,0.05
same,"Change from baseline in HOMA-IR, Mean",per-protocol set,−0.90
same,"Change from baseline in HOMA-IR, Median",per-protocol set,−0.68
same,"Change from baseline in HOMA-β, ANCOVA LS mean",per-protocol set,8.13
same,"Change from baseline in HOMA-β, LS mean difference (enavogliflozin − dapagliflozin)",per-protocol set,4.93
same,"Change from baseline in HOMA-β, Mean",per-protocol set,8.74
same,"Change from baseline in HOMA-β, Median",per-protocol set,4.35
same,"Change from baseline in UACR, ANCOVA LS mean",per-protocol set,-8.76 g/kg
same,"Change from baseline in UACR, LS mean difference (enavogliflozin − dapagliflozin)",per-protocol set,6.09 g/kg
same,"Change from baseline in UACR, Mean",per-protocol set,-11.43 g/kg
same,"Change from baseline in UACR, Median",per-protocol set,-0.50 g/kg
same,"Change from baseline in UGCR, ANCOVA LS mean",per-protocol set,58.10 mg/mg
same,"Change from baseline in UGCR, LS mean difference (enavogliflozin − dapagliflozin)",per-protocol set,12.35 mg/mg
same,"Change from baseline in UGCR, Mean",per-protocol set,56.38 mg/mg
same,"Change from baseline in UGCR, Median",per-protocol set,54.10 mg/mg
same,"Change from baseline in adiponectin, ANCOVA LS mean",per-protocol set,-0.10 µg/mL
same,"Change from baseline in adiponectin, LS mean difference (enavogliflozin − dapagliflozin)",per-protocol set,-0.47 µg/mL
same,"Change from baseline in adiponectin, Mean",per-protocol set,-0.08 µg/mL
same,"Change from baseline in adiponectin, Median",per-protocol set,0.50 µg/mL
same,"Change from baseline in leptin, ANCOVA LS mean",per-protocol set,-1.83 ng/mL
same,"Change from baseline in leptin, LS mean difference (enavogliflozin − dapagliflozin)",per-protocol set,0.20 ng/mL
same,"Change from baseline in leptin, Mean",per-protocol set,-1.75 ng/mL
same,"Change from baseline in leptin, Median",per-protocol set,-0.94 ng/mL
same,"HOMA-IR (insulin resistance), Mean",per-protocol set,2.00
same,"HOMA-IR (insulin resistance), Median",per-protocol set,1.54
same,"HOMA-β (beta-cell function), Mean",per-protocol set,51.08
same,"HOMA-β (beta-cell function), Median",per-protocol set,38.70
same,"Leptin, Mean",per-protocol set,8.88 ng/mL
same,"Leptin, Median",per-protocol set,6.26 ng/mL
same,"UACR, Mean",per-protocol set,36.67 g/kg
same,"UACR, Median",per-protocol set,14.80 g/kg
same,"UGCR, Mean",per-protocol set,57.09 mg/mg
same,"UGCR, Median",per-protocol set,54.57 mg/mg
same,"Achieving HbA1c target of <6.5%, odds ratio (logistic regression model)",[2],0.65
same,"Achieving HbA1c target of <7%, odds ratio (logistic regression model)",[2],1.22
same,"Change from baseline in FPG, ANCOVA LS mean difference",[2],-3.24 mg/dL
same,"Change from baseline in HbA1c, ANCOVA LS mean difference",[2],−0.03 % p
same,"Change from baseline in body weight, ANCOVA LS mean difference",[2],-0.13 kg
same,"Change from baseline in fasting C-peptide, ANCOVA LS mean difference",[2],-0.01 ng/mL
same,"Therapeutic glycemic response 1, odds ratio (logistic regression model)",[2],1.52
same,"Therapeutic glycemic response 2, odds ratio (logistic regression model)",[2],1.16
same,"Therapeutic glycemic response 3, odds ratio (logistic regression model)",[2],1.38
same,"Body weight, Mean",[3],67.13 kg
same,"Change from baseline in FPG, ANCOVA LS mean",[3],-25.96 mg/dL
same,"Change from baseline in FPG, Mean",[3],-25.72 mg/dL
same,"Change from baseline in FPG, Median",[3],-24.50 mg/dL
same,"Change from baseline in HbA1c, ANCOVA LS mean",[3],−0.73 % p
same,"Change from baseline in HbA1c, Mean",[3],−0.74 % p
same,"Change from baseline in HbA1c, Median",[3],−0.65 % p
same,"Change from baseline in body weight, ANCOVA LS mean",[3],-1.92 kg
same,"Change from baseline in body weight, Mean",[3],-1.87 kg
same,"Change from baseline in body weight, Median",[3],-1.90 kg
same,"Change from baseline in fasting C-peptide, ANCOVA LS mean",[3],-0.05 ng/mL
same,"Change from baseline in fasting C-peptide, Mean",[3],-0.06 ng/mL
same,"Change from baseline in fasting C-peptide, Median",[3],-0.07 ng/mL
same,"FPG, Mean",[3],114.21 mg/dL
same,"FPG, Median",[3],113.00 mg/dL
